Experimental data published in the NIST ThermoML archive (doi:10.1021/je1005054).
± gives the expanded uncertainty stated by the source.

Conditions: Liquid, Calculated from knudsen effusion weight loss

O=C1CCCCCN1 [1-aza-2-cycloheptanone]
vapor or sublimation pressure (343 K): 0.0263 ± 0.0041 kPa | vapor or sublimation pressure (347.9 K): 0.0372 ± 0.006 kPa | vapor or sublimation pressure (348 K): 0.0374 ± 0.006 kPa | vapor or sublimation pressure (352.9 K): 0.0523 ± 0.0086 kPa | vapor or sublimation pressure (353 K): 0.0527 ± 0.0087 kPa
